Reference: ChEMBL document CHEMBL1201862, “PubChem BioAssay data set” (2004)
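Compound exposure: 48 hours, 5 concentrations, 96-well plates. Abbreviation: GI50, concentration required for 50% inhibition of growth.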 Calls of active or inactive are those of the source. Rule as the data show it: active = GI50 up to about 1.1 µM and inactive = higher.

Columns and labels:
Assay in all cases: NCI anticancer screen, dose series, 48 h
[1] = system: HT-29
[2] = system: M14
[3] = system: IGROV-1
[4] = system: LOX IMVI
[5] = system: CCRF-CEM
[6] = system: OVCAR-4
[7] = system: COLO 205
[8] = system: SF-539
[9] = system: BT-549
[10] = system: RXF 393
[11] = system: NCI-H460
[12] = system: HOP-62
[13] = system: NCI-H23
[14] = system: OVCAR-3
[15] = system: SW-620
[16] = system: MDA-N
[17] = system: K562
[18] = system: OVCAR-8
[19] = system: SN12C
[20] = system: SK-MEL-28
[21] = system: MCF7
[22] = system: EKVX
[23] = system: HL-60
[24] = system: SNB-75
[25] = system: DU-145
[26] = system: MDA-MB-435
[27] = system: U-251
[28] = system: SF-295
[29] = system: SK-OV-3
[30] = system: RPMI-8226
[31] = system: HCC 2998
[32] = system: PC-3
[33] = system: T47D
[34] = system: NCI-H522
[35] = system: SNB-19
[36] = system: HCT-15
[37] = system: SR
[38] = system: HOP-92
[39] = system: UACC-257
[40] = system: MOLT-4
[41] = system: TK-10
[42] = system: KM12
[43] = system: HCT-116
[44] = system: SK-MEL-5
[45] = system: OVCAR-5
[46] = system: A549
[47] = system: MDA-MB-231
[48] = system: SF-268
[49] = system: UO-31
[50] = system: 786-0
[51] = system: UACC-62
[52] = system: ACHN
[53] = system: SK-MEL-2
[54] = system: NCI/ADR-RES
[55] = system: A498
[56] = system: NCI-H226
[57] = system: CAKI-1

O=C1CSC(c2c[nH]c3ccccc23)N1c1cccc([N+](=O)[O-])c1 (configuration not stated)
GI50 [1]: > 100 µM (inactive) | GI50 [2]: > 100 µM (inactive) | GI50 [3]: > 100 µM (inactive) | GI50 [4]: 93.5 µM (inactive) | GI50 [5]: > 100 µM (inactive) | GI50 [6]: > 100 µM (inactive) | GI50 [7]: > 100 µM (inactive) | GI50 [8]: 82 µM (inactive) | GI50 [9]: > 100 µM (inactive) | GI50 [10]: > 100 µM (inactive) | GI50 [11]: 28.8 µM (inactive) | GI50 [12]: > 100 µM (inactive) | GI50 [13]: > 100 µM (inactive) | GI50 [14]: > 100 µM (inactive) | GI50 [15]: > 100 µM (inactive) | GI50 [16]: 34.8 µM (inactive) | GI50 [17]: 76.2 µM (inactive) | GI50 [18]: > 100 µM (inactive) | GI50 [19]: > 100 µM (inactive) | GI50 [20]: > 100 µM (inactive) | GI50 [21]: 90.8 µM (inactive) | GI50 [22]: > 100 µM (inactive) | GI50 [23]: > 100 µM (inactive) | GI50 [24]: 43.7 µM (inactive) | GI50 [25]: 51.9 µM (inactive) | GI50 [26]: 38.3 µM (inactive) | GI50 [27]: > 100 µM (inactive) | GI50 [28]: 66.7 µM (inactive) | GI50 [29]: > 100 µM (inactive) | GI50 [30]: > 100 µM (inactive) | GI50 [31]: > 100 µM (inactive) | GI50 [32]: 36.1 µM (inactive) | GI50 [33]: > 100 µM (inactive) | GI50 [34]: 95.3 µM (inactive) | GI50 [35]: > 100 µM (inactive) | GI50 [36]: 42.9 µM | GI50 [37]: > 100 µM (inactive) | GI50 [38]: 32.6 µM (inactive) | GI50 [39]: > 100 µM (inactive) | GI50 [40]: > 100 µM (inactive) | GI50 [41]: 81.8 µM (inactive) | GI50 [42]: 24.4 µM (inactive) | GI50 [43]: 73.1 µM (inactive) | GI50 [44]: 84.3 µM (inactive) | GI50 [45]: > 100 µM (inactive) | GI50 [46]: > 100 µM (inactive) | GI50 [47]: 56.2 µM (inactive) | GI50 [48]: > 100 µM (inactive) | GI50 [49]: 42.7 µM (inactive) | GI50 [50]: > 100 µM (inactive) | GI50 [51]: 80.5 µM (inactive)

COc1ccc(NC(=S)C#N)cc1
GI50 [1]: > 100 µM (inactive) | GI50 [2]: > 100 µM (inactive) | GI50 [4]: > 100 µM (inactive) | GI50 [5]: 54.1 µM (inactive) | GI50 [52]: > 100 µM (inactive) | GI50 [53]: > 100 µM (inactive) | GI50 [7]: > 100 µM (inactive) | GI50 [8]: > 100 µM (inactive) | GI50 [9]: > 100 µM (inactive) | GI50 [10]: > 100 µM (inactive) | GI50 [12]: > 100 µM (inactive) | GI50 [13]: > 100 µM (inactive) | GI50 [14]: > 100 µM (inactive) | GI50 [15]: > 100 µM (inactive) | GI50 [16]: > 100 µM (inactive) | GI50 [17]: 49.3 µM (inactive) | GI50 [18]: > 100 µM (inactive) | GI50 [19]: > 100 µM (inactive) | GI50 [20]: > 100 µM (inactive) | GI50 [21]: > 100 µM (inactive) | GI50 [23]: 53 µM (inactive) | GI50 [24]: > 100 µM (inactive) | GI50 [25]: > 100 µM (inactive) | GI50 [26]: > 100 µM (inactive) | GI50 [27]: > 100 µM (inactive) | GI50 [28]: > 100 µM (inactive) | GI50 [29]: > 100 µM (inactive) | GI50 [30]: 38.7 µM (inactive) | GI50 [31]: > 100 µM (inactive) | GI50 [32]: > 100 µM (inactive) | GI50 [33]: 85.7 µM (inactive) | GI50 [35]: > 100 µM (inactive) | GI50 [36]: > 100 µM | GI50 [54]: > 100 µM (inactive) | GI50 [37]: > 100 µM (inactive) | GI50 [38]: 97.3 µM (inactive) | GI50 [55]: 51.9 µM (inactive) | GI50 [39]: > 100 µM (inactive) | GI50 [41]: > 100 µM (inactive) | GI50 [42]: > 100 µM (inactive) | GI50 [43]: > 100 µM (inactive) | GI50 [44]: > 100 µM (inactive) | GI50 [45]: > 100 µM (inactive) | GI50 [46]: > 100 µM (inactive) | GI50 [47]: > 100 µM (inactive) | GI50 [48]: > 100 µM (inactive) | GI50 [56]: > 100 µM (inactive) | GI50 [50]: > 100 µM (inactive) | GI50 [57]: > 100 µM (inactive) | GI50 [51]: > 100 µM (inactive)

CCN(CC)CC1CN=C(N)O1 (configuration not stated)
GI50 [2]: > 100 µM (inactive) | GI50 [3]: > 100 µM (inactive) | GI50 [4]: > 100 µM (inactive) | GI50 [5]: > 100 µM (inactive) | GI50 [52]: > 100 µM (inactive) | GI50 [6]: > 100 µM (inactive) | GI50 [53]: > 100 µM (inactive) | GI50 [7]: > 100 µM (inactive) | GI50 [8]: > 100 µM (inactive) | GI50 [9]: > 100 µM (inactive) | GI50 [10]: > 100 µM (inactive) | GI50 [11]: > 100 µM (inactive) | GI50 [12]: > 100 µM (inactive) | GI50 [13]: > 100 µM (inactive) | GI50 [14]: > 100 µM (inactive) | GI50 [15]: > 100 µM (inactive) | GI50 [16]: > 100 µM (inactive) | GI50 [17]: > 100 µM (inactive) | GI50 [18]: > 100 µM (inactive) | GI50 [19]: > 100 µM (inactive) | GI50 [20]: > 100 µM (inactive) | GI50 [21]: > 100 µM (inactive) | GI50 [22]: > 100 µM (inactive) | GI50 [24]: > 100 µM (inactive) | GI50 [25]: > 100 µM (inactive) | GI50 [26]: > 100 µM (inactive) | GI50 [27]: > 100 µM (inactive) | GI50 [28]: > 100 µM (inactive) | GI50 [30]: > 100 µM (inactive) | GI50 [31]: > 100 µM (inactive) | GI50 [32]: > 100 µM (inactive) | GI50 [33]: > 100 µM (inactive) | GI50 [35]: > 100 µM (inactive) | GI50 [36]: > 100 µM | GI50 [54]: > 100 µM (inactive) | GI50 [37]: > 100 µM (inactive) | GI50 [38]: > 100 µM (inactive) | GI50 [55]: > 100 µM (inactive) | GI50 [39]: > 100 µM (inactive) | GI50 [40]: > 100 µM (inactive) | GI50 [42]: > 100 µM (inactive) | GI50 [43]: > 100 µM (inactive) | GI50 [44]: > 100 µM (inactive) | GI50 [45]: > 100 µM (inactive) | GI50 [46]: > 100 µM (inactive) | GI50 [47]: > 100 µM (inactive) | GI50 [56]: > 100 µM (inactive) | GI50 [49]: > 100 µM (inactive) | GI50 [50]: > 100 µM (inactive) | GI50 [57]: > 100 µM (inactive) | GI50 [51]: > 100 µM (inactive)
